The source made the active and inactive calls. How the calls were made is not given here.
Tested on: CCRIS mutagenicity, Ames/micronucleus/aberration tests
Assay: CCRIS mutagenicity studies
[1] = Test System: AMES SALMONELLA TYPHIMURIUM, Strain/Indicator: TA98, Metabolic Activation: RAT, LIVER, S-9, AROCLOR 1254, Method: STANDARD PLATE
[2] = Test System: AMES SALMONELLA TYPHIMURIUM, Strain/Indicator: TA100, Metabolic Activation: NONE, Method: STANDARD PLATE
[3] = Test System: AMES SALMONELLA TYPHIMURIUM, Strain/Indicator: TA100, Metabolic Activation: RAT, LIVER, S-9, AROCLOR 1254, Method: STANDARD PLATE
[4] = Test System: AMES SALMONELLA TYPHIMURIUM, Strain/Indicator: TA97, Metabolic Activation: RAT, LIVER, S-9, AROCLOR 1254, Method: STANDARD PLATE
[5] = Test System: AMES SALMONELLA TYPHIMURIUM, Strain/Indicator: TA98, Metabolic Activation: NONE, Method: STANDARD PLATE
[6] = Test System: AMES SALMONELLA TYPHIMURIUM, Strain/Indicator: TA1535, Metabolic Activation: RAT, LIVER, S-9, AROCLOR 1254, Method: STANDARD PLATE
[7] = Test System: AMES SALMONELLA TYPHIMURIUM, Strain/Indicator: TA1538, Metabolic Activation: RAT, LIVER, S-9, AROCLOR 1254, Method: STANDARD PLATE
[8] = Test System: AMES SALMONELLA TYPHIMURIUM, Strain/Indicator: TA98, Metabolic Activation: NONE, Method: PREINCUBATION
[9] = Test System: AMES SALMONELLA TYPHIMURIUM, Strain/Indicator: TA100, Metabolic Activation: NONE, Method: PREINCUBATION

Measured: mutagenic call

CCS(=O)(=O)CCn1c([N+](=O)[O-])cnc1C
inactive: [1] inactive; negative
active: Test System: AMES SALMONELLA TYPHIMURIUM, Strain/Indicator: TA100(1,8-DNP6), Metabolic Activation: NONE, Method: PREINCUBATION (AEROBIC) active; positive | Test System: AMES SALMONELLA TYPHIMURIUM, Strain/Indicator: TA100(NR), Metabolic Activation: NONE, Method: PREINCUBATION (AEROBIC) active; positive | Test System: AMES SALMONELLA TYPHIMURIUM, Strain/Indicator: TA100(NR), Metabolic Activation: NONE, Method: PREINCUBATION (ANAEROBIC) active; positive | Test System: AMES SALMONELLA TYPHIMURIUM, Strain/Indicator: TA100(NR), Metabolic Activation: RAT, LIVER, S-9, AROCLOR 1254, Method: PREINCUBATION (AEROBIC) active; positive | Test System: AMES SALMONELLA TYPHIMURIUM, Strain/Indicator: TA100(NR), Metabolic Activation: RAT, LIVER, S-9, AROCLOR 1254, Method: PREINCUBATION (ANAEROBIC) active; positive | Test System: AMES SALMONELLA TYPHIMURIUM, Strain/Indicator: TA100(NR), Metabolic Activation: RAT, LIVER, S-9, AROCLOR 1254, Method: STANDARD PLATE active; positive | Test System: AMES SALMONELLA TYPHIMURIUM, Strain/Indicator: TA100, Metabolic Activation: NONE, Method: PREINCUBATION (AEROBIC) active; positive | Test System: AMES SALMONELLA TYPHIMURIUM, Strain/Indicator: TA100, Metabolic Activation: NONE, Method: PREINCUBATION (ANAEROBIC) active; positive | [2] active; positive | Test System: AMES SALMONELLA TYPHIMURIUM, Strain/Indicator: TA100, Metabolic Activation: RAT, LIVER, S-9, AROCLOR 1254, Method: PREINCUBATION (AEROBIC) active; positive | Test System: AMES SALMONELLA TYPHIMURIUM, Strain/Indicator: TA100, Metabolic Activation: RAT, LIVER, S-9, AROCLOR 1254, Method: PREINCUBATION (ANAEROBIC) active; positive | [3] active; positive | Test System: AMES SALMONELLA TYPHIMURIUM, Strain/Indicator: UTH8414, Metabolic Activation: NONE, Method: STANDARD PLATE active; positive | Test System: AMES SALMONELLA TYPHIMURIUM, Strain/Indicator: YG1029, Metabolic Activation: NONE, Method: PREINCUBATION (AEROBIC) active; positive

C/C=C\c1ccc(OC)cc1OC
inactive: Test System: AMES SALMONELLA TYPHIMURIUM, Strain/Indicator: TA97, Metabolic Activation: NONE, Method: STANDARD PLATE inactive; negative | [4] inactive; negative | [5] inactive; negative | [1] inactive; negative | [2] inactive; negative | [3] inactive; negative | Test System: AMES SALMONELLA TYPHIMURIUM, Strain/Indicator: TA1535, Metabolic Activation: NONE, Method: STANDARD PLATE inactive; negative | [6] inactive; negative | Test System: AMES SALMONELLA TYPHIMURIUM, Strain/Indicator: TA1537, Metabolic Activation: NONE, Method: STANDARD PLATE inactive; negative | Test System: AMES SALMONELLA TYPHIMURIUM, Strain/Indicator: TA1537, Metabolic Activation: RAT, LIVER, S-9, AROCLOR 1254, Method: STANDARD PLATE inactive; negative | Test System: AMES SALMONELLA TYPHIMURIUM, Strain/Indicator: TA1538, Metabolic Activation: NONE, Method: STANDARD PLATE inactive; negative | [7] inactive; negative

CC(C)=CCC[C@@](C)(O)[C@H]1CCC=CC1=O
active: Test System: AMES SALMONELLA TYPHIMURIUM, Strain/Indicator: TM677, Metabolic Activation: NONE, Method: STANDARD PLATE active; positive | Test System: AMES SALMONELLA TYPHIMURIUM, Strain/Indicator: TM677, Metabolic Activation: RAT, LIVER, S-9, AROCLOR 1254, Method: STANDARD PLATE active; positive

O=S(=O)(O)c1ccc(O)c2ncccc12
active: Test System: AMES SALMONELLA TYPHIMURIUM, Strain/Indicator: TA98, Metabolic Activation: RAT, LIVER, S-9, Method: PREINCUBATION active; positive | Test System: AMES SALMONELLA TYPHIMURIUM, Strain/Indicator: TA100, Metabolic Activation: RAT, LIVER, S-9, Method: PREINCUBATION active; positive
inactive: [8] inactive; negative | [9] inactive; negative

COc1cc(-c2ccc(N/N=C3\C=C(S(=O)(=O)O)c4ccccc4C3=O)c(OC)c2)ccc1N=Nc1cc(S(=O)(=O)O)c2ccccc2c1N
inactive: Test System: AMES SALMONELLA TYPHIMURIUM, Strain/Indicator: TA97, Metabolic Activation: HAMSTER, LIVER, S-9, AROCLOR 1254 (10 OR 30%), Method: PREINCUBATION inactive; negative | Test System: AMES SALMONELLA TYPHIMURIUM, Strain/Indicator: TA97, Metabolic Activation: NONE, Method: PREINCUBATION inactive; negative | Test System: AMES SALMONELLA TYPHIMURIUM, Strain/Indicator: TA97, Metabolic Activation: RAT, LIVER, S-9, AROCLOR 1254 (10 OR 30%), Method: PREINCUBATION inactive; negative | Test System: AMES SALMONELLA TYPHIMURIUM, Strain/Indicator: TA98, Metabolic Activation: HAMSTER, LIVER, S-9, AROCLOR 1254 (10 OR 30%), Method: PREINCUBATION inactive; negative | [8] inactive; negative | Test System: AMES SALMONELLA TYPHIMURIUM, Strain/Indicator: TA98, Metabolic Activation: RAT, LIVER, S-9, AROCLOR 1254 (10 OR 30%), Method: PREINCUBATION inactive; negative | Test System: AMES SALMONELLA TYPHIMURIUM, Strain/Indicator: TA100, Metabolic Activation: HAMSTER, LIVER, S-9, AROCLOR 1254 (10 OR 30%), Method: PREINCUBATION inactive; negative | [9] inactive; negative | Test System: AMES SALMONELLA TYPHIMURIUM, Strain/Indicator: TA100, Metabolic Activation: RAT, LIVER, S-9, AROCLOR 1254 (10 OR 30%), Method: PREINCUBATION inactive; negative | Test System: AMES SALMONELLA TYPHIMURIUM, Strain/Indicator: TA1535, Metabolic Activation: HAMSTER, LIVER, S-9, AROCLOR 1254 (10 OR 30%), Method: PREINCUBATION inactive; negative | Test System: AMES SALMONELLA TYPHIMURIUM, Strain/Indicator: TA1535, Metabolic Activation: NONE, Method: PREINCUBATION inactive; negative | Test System: AMES SALMONELLA TYPHIMURIUM, Strain/Indicator: TA1535, Metabolic Activation: RAT, LIVER, S-9, AROCLOR 1254 (10 OR 30%), Method: PREINCUBATION inactive; negative | Test System: AMES SALMONELLA TYPHIMURIUM, Strain/Indicator: TA1538, Metabolic Activation: HAMSTER, LIVER, S-9, Method: STANDARD PLATE inactive; negative | [7] inactive; negative

Cn1c([N+](=O)[O-])nc2ccccc21
active: [5] active; positive

O=C(COc1ccc(Cl)cc1Cl)N[C@@H](Cc1c[nH]c2ccccc12)C(=O)O
inactive: [4] inactive; negative | Test System: AMES SALMONELLA TYPHIMURIUM, Strain/Indicator: TA97, Metabolic Activation: WOODCHUCK, LIVER, S-9, 3-METHYLCHOLANTHRENE, Method: STANDARD PLATE inactive; negative | [1] inactive; negative | Test System: AMES SALMONELLA TYPHIMURIUM, Strain/Indicator: TA98, Metabolic Activation: WOODCHUCK, LIVER, S-9, 3-METHYLCHOLANTHRENE, Method: STANDARD PLATE inactive; negative | [3] inactive; negative | Test System: AMES SALMONELLA TYPHIMURIUM, Strain/Indicator: TA100, Metabolic Activation: WOODCHUCK, LIVER, S-9, 3-METHYLCHOLANTHRENE, Method: STANDARD PLATE inactive; negative | [6] inactive; negative | Test System: AMES SALMONELLA TYPHIMURIUM, Strain/Indicator: TA1535, Metabolic Activation: WOODCHUCK, LIVER, S-9, 3-METHYLCHOLANTHRENE, Method: STANDARD PLATE inactive; negative | [7] inactive; negative | Test System: AMES SALMONELLA TYPHIMURIUM, Strain/Indicator: TA1538, Metabolic Activation: WOODCHUCK, LIVER, S-9, 3-METHYLCHOLANTHRENE, Method: STANDARD PLATE inactive; negative

Cc1cc2c(N3CCCC3)nc(N3CCCC3)nc2n1C
active: Test System: UDS RAT HEPATOCYTES, Strain/Indicator: THY-INCORP, Metabolic Activation: NONE, Method: AUTORADIOGRAPHY active; positive
